# Laboratory results published in PMC11481179, “Development and Application of Reversible and Irreversible Covalent Probes for Human and Mouse Cathepsin‐K Activity Detection, Revealing Nuclear Activity” (Advanced Science, 2024).
# Tests used:
# [1] = molecular target: CTSL (Homo sapiens, UniProt P07711); assay: Recombinant cathepsin inhibition, residual activity labeled by pan cathepsin probe GB123, in-gel fluorescence; format: biochemical; settings: even at 10 µM
# Procedure: (§1) Figure 1 In vitro evaluation of CTSK targeted compounds. a) Labeling of recombinant cathepsins by ABPs. Recombinant cathepsins were treated with increasing concentrations of ABPs for 1 h. Samples were separated by SDS‐PAGE and scanned for fluorescence by a Typhoon scanner at 635/670 nm. All probes show dose‐dependent binding to the CTSK, and have lower affinity to CTSS except GD36, b) CTSK [0.5–280 ng] was labeled with the indicated ABPs [5 µM]. Incubations were performed for 1 h at 37 °C, at pH 5.5. Samples were analyzed as described in (a). c) Recombinant cathepsins B, K, L, and S [0.5 µM] were first treated with the indicated concentrations of the inhibitor GD30 or vehicle for 1 h followed by incubation with a pan cathepsin probe GB123 [1 µM] for 1 h. Samples were analyzed as described in (a). d) Quantitative analysis of CTSK inhibition by GD30 presented in (d), data represent mean values ± standard error, n = 3. e) IC50 plot of GD30 inhibition of CTSK activity.
# (§2) To further evaluate the probes for their selectivity, we applied a potent and selective covalent inhibitor, Compound 6 (GD30); the inhibitor was generated as a precursor of GD32 and GD36. GD30 was evaluated for its ability to block cathepsin activities by preincubating it with each recombinant enzyme before labeling it by a pan cathepsin ABP, GB123. […]
# (§3) Recombinant cathepsin inhibition: Recombinant human CTSL, CTSB, CTSK, and CTSS (0.5 µM) were pretreated with different concentrations of inhibitors (GD30, ODN) for 1 h in reaction buffer (50 mM acetate, 4 mM DTT and 5 mM MgCl2, pH 5.5) at 37 °C. GB123, 1 µM, was added, and incubated with samples for 1 h at 37 °C. The reaction was stopped by the addition of sample buffer 4x (40% glycerol, 0.2 M Tris/HCl pH 6.8, 20% beta-mercaptoethanol, 12% SDS, and 0.4 mg/ml bromophenol blue). Samples were then boiled at 95 °C for 2 mins, separated on a 12.5% SDS gel, and scanned for fluorescence by a Typhoon scanner FLA 9500 at excitation/emission wavelengths of 635/670 nm.
# (§4) Recombinant cathepsin labeling: Recombinant human CTSL, CTSB, CTSK, and CTSS (0.5 µM) were pretreated with different concentrations of probes (GD32, GD36, GD37, or GD42)
# [2] = molecular target: CTSS (Homo sapiens, UniProt P25774); assay: as above; format: biochemical; settings: even at 10 µM
# Chain of CTSS (P25774 115-331): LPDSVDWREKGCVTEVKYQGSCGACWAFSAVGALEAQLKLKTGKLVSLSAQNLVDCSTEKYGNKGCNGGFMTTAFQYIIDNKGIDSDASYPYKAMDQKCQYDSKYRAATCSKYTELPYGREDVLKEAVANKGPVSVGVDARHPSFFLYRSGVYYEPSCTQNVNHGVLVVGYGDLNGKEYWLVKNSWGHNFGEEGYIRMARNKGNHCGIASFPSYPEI
# Procedure: as §1, §2, §3, §4
# [3] = molecular target: T1, CTSK (Homo sapiens, UniProt P43235); assay: as above; format: biochemical; settings: CTSK 0.5 µM, 1 h preincubation, then GB123 1 µM 1 h, pH 5.5
# T1 sequence (P43235 115-329): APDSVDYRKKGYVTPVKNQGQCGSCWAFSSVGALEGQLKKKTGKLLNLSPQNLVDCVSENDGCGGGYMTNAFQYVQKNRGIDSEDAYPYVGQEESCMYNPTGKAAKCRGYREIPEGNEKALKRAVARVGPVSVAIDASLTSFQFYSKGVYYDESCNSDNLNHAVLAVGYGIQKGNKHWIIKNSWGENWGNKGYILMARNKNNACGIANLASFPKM
# Procedure: as §1, §2, §3, §4
# [4] = molecular target: T1, CTSK; assay: Recombinant cathepsin labeling by ABPs, in-gel fluorescence; format: binding; settings: ABP 5 µM, 1 h, 37 °C, pH 5.5, CTSK 0.5–280 ng
# Procedure: The ABPs were tested for binding to recombinant CTSK compared to the closely related CTSB, CTSL, and CTSS, which are highly abundant and active in most biological samples. Using the in‐gel fluorescent analysis that detects the stable enzyme‐probe complex, active CTSK was labeled with each of the four probes, and significant selectivity was found in three probes GD32, GD37, and GD42 (Figure 1a). […] However, the minimum amount of active CTSK the remaining probes detected was much higher, ranging from 8 to 70 ngs, (Figure 1b).
# as §1, with “activity. […]” for “activity.”
# emission wavelengths of 370 and 460 nm, respectively. Cathepsin concentrations in the assay were 0.4 nM (CTSK) or 5 nM (CTSS, CTSB, and CTSL). […] For irreversible inhibitors, reaction data were fitted to the one-phase association formula in GraphPad Prism 9 software: Y=Y0 + (Plateau-Y0)*(1-exp(-K*X)) where in this case Y0 and Y represent fluorescence signal at times 0 and t, respectively, K represent the observed reaction rate kobs and X the inhibitor concentration. […]
# reaction was stopped and samples were analyzed as described above. […]
# Chain of CTSL (P07711 114-333): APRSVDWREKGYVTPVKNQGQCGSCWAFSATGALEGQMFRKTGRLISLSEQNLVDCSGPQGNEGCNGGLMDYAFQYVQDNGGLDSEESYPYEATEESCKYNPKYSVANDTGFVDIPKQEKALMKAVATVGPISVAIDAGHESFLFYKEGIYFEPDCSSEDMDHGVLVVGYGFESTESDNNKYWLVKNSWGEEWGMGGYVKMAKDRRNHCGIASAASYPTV
Compound,inhibition of recombinant cathepsin [1],inhibition of recombinant cathepsin [2],IC50 [3],minimum amount of active CTSK detected [4]
C#CCNC(=O)[C@H](CC(C)C)N[C@@H](c1ccc(-c2ccc(S(=O)(=O)CCNC(=O)OC(C)(C)C)cc2)cc1)C(F)(F)F [GD30],not inhibiting,not inhibiting,561 nM,
C#CCNC(=O)[C@H](CC(C)C)N[C@@H](c1ccc(-c2ccc(S(=O)(=O)CCNC(=O)CCCCC[N+]3=C(/C=C/C=C/C=C4/N(C)c5ccc(S(=O)(=O)O)cc5C4(C)C)C(C)(C)c4cc(S(=O)(=O)O)ccc43)cc2)cc1)C(F)(F)F [GD32],,,,0.5 ng
